Measurements from ChEMBL document CHEMBL3875218, “Bifunctional conjugates with potent inhibitory activity towards cyclooxygenase and histone deacetylase” (Bioorg Med Chem, 2017).

Legend:
Histone deacetylase 1 = Histone deacetylase 1 (Homo sapiens, UniProt Q13547); test: Inhibition of HDAC1 (unknown origin) after 24 hrs by SAMDI mass spectroscopic analysis
Histone deacetylase 3 = Histone deacetylase 3 (Homo sapiens, UniProt O15379); test: Inhibition of HDAC3 (unknown origin) after 5 hrs by SAMDI mass spectroscopic analysis
Histone deacetylase 3, sequence (O15379 whole entry): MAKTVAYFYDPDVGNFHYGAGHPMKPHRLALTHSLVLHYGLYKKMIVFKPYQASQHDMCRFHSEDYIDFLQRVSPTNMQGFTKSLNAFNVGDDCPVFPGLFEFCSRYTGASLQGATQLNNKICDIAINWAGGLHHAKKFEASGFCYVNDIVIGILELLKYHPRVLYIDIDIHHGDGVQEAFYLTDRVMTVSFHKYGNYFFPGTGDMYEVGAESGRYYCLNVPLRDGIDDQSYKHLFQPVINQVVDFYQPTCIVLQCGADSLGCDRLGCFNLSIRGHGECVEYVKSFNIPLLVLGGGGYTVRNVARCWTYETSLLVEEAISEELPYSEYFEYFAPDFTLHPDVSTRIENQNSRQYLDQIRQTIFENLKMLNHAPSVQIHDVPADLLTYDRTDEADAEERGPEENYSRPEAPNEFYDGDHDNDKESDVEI

[1] = target: T1, Prostaglandin G/H synthase 1 (Ovis aries) (UniProt P05979); test: Inhibition of sheep COX1 at 10 uM using arachidonic acid as substrate preincubated for 15 mins followed by substrate addition for 2 mins by Cayman based fluorescence assay
T1 sequence (whole entry): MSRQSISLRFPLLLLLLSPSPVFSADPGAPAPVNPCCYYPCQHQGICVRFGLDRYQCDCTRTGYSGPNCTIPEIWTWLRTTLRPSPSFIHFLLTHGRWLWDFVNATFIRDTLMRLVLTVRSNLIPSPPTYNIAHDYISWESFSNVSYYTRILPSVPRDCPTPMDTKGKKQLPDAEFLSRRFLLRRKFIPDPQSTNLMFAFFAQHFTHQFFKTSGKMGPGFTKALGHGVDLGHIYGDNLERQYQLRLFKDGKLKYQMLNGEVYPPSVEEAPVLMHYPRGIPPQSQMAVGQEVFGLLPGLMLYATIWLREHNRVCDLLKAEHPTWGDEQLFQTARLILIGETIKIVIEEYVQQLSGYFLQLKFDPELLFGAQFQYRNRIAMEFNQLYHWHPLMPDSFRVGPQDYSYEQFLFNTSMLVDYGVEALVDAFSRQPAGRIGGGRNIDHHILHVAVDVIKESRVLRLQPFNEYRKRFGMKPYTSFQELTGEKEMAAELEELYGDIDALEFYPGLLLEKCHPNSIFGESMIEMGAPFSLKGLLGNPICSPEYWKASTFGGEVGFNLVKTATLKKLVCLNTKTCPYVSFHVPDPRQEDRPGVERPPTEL

[2] = target: T2, Prostaglandin G/H synthase 1 (Ovis aries, UniProt P05979); test: Inhibition of sheep COX1 using arachidonic acid as substrate preincubated for 15 mins followed by substrate addition for 2 mins by Cayman based fluorescence assay
T2 sequence (P05979 whole entry): T1 sequence (whole entry)

Histone deacetylase 8 = target: T3, Histone deacetylase 8 (Homo sapiens, UniProt Q9BY41); test: Inhibition of HDAC8 (unknown origin) after 2.5 hrs by SAMDI mass spectroscopic analysis
T3 sequence (Q9BY41 whole entry): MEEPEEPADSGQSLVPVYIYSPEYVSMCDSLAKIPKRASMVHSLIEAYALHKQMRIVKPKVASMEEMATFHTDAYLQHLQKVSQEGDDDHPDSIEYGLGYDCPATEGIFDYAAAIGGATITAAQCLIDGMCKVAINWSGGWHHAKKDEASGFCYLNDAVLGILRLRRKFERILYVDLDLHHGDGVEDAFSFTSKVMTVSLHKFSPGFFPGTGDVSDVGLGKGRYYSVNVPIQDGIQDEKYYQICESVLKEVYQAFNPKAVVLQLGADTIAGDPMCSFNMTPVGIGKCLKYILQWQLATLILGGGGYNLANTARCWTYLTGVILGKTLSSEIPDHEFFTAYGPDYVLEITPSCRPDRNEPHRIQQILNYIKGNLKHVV

Histone deacetylase 2 = Histone deacetylase 2 (Homo sapiens, UniProt Q92769); test: Inhibition of HDAC2 (unknown origin) after 24 hrs by SAMDI mass spectroscopic analysis
Histone deacetylase 2, sequence (Q92769 whole entry): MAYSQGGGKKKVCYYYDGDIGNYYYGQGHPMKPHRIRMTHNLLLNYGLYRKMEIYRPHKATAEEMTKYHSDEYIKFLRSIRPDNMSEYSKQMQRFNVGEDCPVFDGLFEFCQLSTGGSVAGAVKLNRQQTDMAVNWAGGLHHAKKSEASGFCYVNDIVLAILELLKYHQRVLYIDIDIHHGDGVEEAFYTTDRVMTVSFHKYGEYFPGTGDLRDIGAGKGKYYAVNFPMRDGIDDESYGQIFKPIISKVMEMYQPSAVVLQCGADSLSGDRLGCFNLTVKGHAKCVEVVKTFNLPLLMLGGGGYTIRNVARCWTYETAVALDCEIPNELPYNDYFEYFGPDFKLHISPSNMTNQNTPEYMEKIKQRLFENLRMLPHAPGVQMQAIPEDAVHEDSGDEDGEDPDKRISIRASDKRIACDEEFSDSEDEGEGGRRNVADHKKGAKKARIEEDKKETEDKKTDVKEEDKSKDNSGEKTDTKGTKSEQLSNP

[3] = Cytotoxicity against human LNCAP cells assessed as cell growth inhibition after 72 hrs by MTT assay; type: functional, cell-based
[4] = target: T4, Protein deacetylase HDAC6 (Homo sapiens, UniProt Q9UBN7); test: Inhibition of HDAC6 (unknown origin) after 20 hrs by SAMDI mass spectroscopic analysis
T4 sequence (Q9UBN7 whole entry): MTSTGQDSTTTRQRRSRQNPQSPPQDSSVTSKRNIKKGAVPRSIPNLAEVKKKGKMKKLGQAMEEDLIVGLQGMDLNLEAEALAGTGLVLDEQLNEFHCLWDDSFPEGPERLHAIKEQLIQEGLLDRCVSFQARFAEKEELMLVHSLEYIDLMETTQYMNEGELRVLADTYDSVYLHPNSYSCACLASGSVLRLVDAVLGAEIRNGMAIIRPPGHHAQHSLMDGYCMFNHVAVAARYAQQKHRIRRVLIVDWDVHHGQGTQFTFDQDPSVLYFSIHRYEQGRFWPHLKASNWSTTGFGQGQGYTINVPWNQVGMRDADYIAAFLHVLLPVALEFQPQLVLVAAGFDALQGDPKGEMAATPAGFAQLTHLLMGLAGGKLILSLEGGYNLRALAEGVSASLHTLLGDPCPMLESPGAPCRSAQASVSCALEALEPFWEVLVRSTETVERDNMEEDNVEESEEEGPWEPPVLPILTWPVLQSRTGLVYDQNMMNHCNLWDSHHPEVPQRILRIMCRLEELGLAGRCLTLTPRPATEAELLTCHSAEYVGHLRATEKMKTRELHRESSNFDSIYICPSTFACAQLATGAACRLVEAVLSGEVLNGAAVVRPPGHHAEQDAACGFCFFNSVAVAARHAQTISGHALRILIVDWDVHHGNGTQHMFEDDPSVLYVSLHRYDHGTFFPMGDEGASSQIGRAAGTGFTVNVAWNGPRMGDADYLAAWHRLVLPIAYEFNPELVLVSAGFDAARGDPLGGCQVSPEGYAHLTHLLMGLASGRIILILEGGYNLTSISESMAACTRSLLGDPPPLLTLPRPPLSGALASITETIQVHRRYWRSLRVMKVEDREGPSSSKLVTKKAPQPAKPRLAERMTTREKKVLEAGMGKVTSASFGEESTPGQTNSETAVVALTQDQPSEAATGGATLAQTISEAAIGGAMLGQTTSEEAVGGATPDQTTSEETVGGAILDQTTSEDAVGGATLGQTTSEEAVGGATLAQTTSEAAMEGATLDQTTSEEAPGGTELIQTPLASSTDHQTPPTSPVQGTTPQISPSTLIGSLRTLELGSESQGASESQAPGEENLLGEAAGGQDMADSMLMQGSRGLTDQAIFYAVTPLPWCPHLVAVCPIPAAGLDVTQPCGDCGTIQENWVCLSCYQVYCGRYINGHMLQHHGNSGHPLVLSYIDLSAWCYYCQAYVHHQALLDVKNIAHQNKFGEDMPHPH

[5] = target: T5, Prostaglandin G/H synthase 2 (Homo sapiens, UniProt P35354); test: Inhibition of recombinant human COX2 using arachidonic acid as substrate preincubated for 15 mins followed by substrate addition for 2 mins by Cayman based fluorescence assay
T5 sequence (P35354 whole entry): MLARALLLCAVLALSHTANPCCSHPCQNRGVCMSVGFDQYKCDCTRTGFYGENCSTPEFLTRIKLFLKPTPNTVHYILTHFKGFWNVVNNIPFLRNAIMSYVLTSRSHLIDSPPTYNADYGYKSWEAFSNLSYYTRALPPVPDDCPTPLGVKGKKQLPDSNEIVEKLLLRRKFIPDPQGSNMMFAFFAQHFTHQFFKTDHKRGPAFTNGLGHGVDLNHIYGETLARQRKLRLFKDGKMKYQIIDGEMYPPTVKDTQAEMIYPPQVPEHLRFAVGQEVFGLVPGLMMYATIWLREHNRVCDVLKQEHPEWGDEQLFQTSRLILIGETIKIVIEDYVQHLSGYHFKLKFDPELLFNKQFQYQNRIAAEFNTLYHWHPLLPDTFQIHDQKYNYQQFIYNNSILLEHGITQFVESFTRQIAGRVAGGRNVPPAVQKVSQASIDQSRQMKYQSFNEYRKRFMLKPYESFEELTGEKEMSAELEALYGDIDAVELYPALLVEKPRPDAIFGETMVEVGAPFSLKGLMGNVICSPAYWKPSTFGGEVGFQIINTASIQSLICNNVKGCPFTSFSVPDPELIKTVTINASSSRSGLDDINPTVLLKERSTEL

[6] = target: T6, Prostaglandin G/H synthase 2 (Homo sapiens) (UniProt P35354); test: Inhibition of recombinant human COX2 at 10 uM using arachidonic acid as substrate preincubated for 15 mins followed by substrate addition for 2 mins by Cayman based fluorescence assay
T6 sequence (whole entry): T5 sequence (P35354 whole entry)

[7] = Cytotoxicity against human HCT116 cells assessed as cell growth inhibition after 72 hrs by MTT assay; type: functional, cell-based; conditions: HCT-116, 72 h
[8] = Cytotoxicity against African green monkey Vero cells assessed as cell growth inhibition after 72 hrs by MTT assay; type: toxicity, cell-based; conditions: African green monkey (Chlorocebus sabaeus)
[9] = Cytotoxicity against human MCF7 cells assessed as cell growth inhibition after 72 hrs by MTT assay; type: functional, cell-based; conditions: MCF7, 72 h
[10] = Cytotoxicity against human A549 cells assessed as cell growth inhibition after 72 hrs by MTT assay; type: functional, cell-based; conditions: A549, 72 h
LNCaP [11] = test: Induction of cell cycle arrest in human LNCAP cells assessed as accumulation at greater G2 phase at 2.5 uM after 24 hrs by propidium iodide staining based FACS analysis (reference value: 0.20%); type: functional
LNCaP [12] = test: Induction of cell cycle arrest in human LNCAP cells assessed as accumulation at G2 phase at 2.5 uM after 24 hrs by propidium iodide staining based FACS analysis (reference value: 1.08%); type: functional
LNCaP [13] = test: Induction of cell cycle arrest in human LNCAP cells assessed as accumulation at G1 phase at 2.5 uM after 24 hrs by propidium iodide staining based FACS analysis (reference value: 69.5%); type: functional
[14] = Cytotoxicity against human HeLa cells assessed as cell growth inhibition after 72 hrs by MTT assay
LNCaP [15] = test: Induction of cell cycle arrest in human LNCAP cells assessed as accumulation at S phase at 2.5 uM after 24 hrs by propidium iodide staining based FACS analysis (reference value: […]); type: functional
LNCaP [16] = test: Induction of cell cycle arrest in human LNCAP cells assessed as accumulation at lesser G1 phase at 2.5 uM after 24 hrs by propidium iodide staining based FACS analysis (reference value: 1.59%); type: functional

Histone deacetylase 1, sequence (Q13547 whole entry): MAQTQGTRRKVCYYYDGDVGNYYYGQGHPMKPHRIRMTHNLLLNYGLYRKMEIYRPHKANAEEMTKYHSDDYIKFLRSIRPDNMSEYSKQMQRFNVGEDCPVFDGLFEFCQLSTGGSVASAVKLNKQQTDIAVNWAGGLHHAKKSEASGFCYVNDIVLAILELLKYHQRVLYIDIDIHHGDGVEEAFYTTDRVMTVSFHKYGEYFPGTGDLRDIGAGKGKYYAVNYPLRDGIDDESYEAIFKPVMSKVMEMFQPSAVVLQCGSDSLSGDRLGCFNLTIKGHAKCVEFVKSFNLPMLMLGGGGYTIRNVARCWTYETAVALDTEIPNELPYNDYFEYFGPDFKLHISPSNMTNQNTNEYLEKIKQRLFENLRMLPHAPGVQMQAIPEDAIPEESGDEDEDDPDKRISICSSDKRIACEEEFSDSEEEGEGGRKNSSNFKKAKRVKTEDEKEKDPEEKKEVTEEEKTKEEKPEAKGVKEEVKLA

SMILES	IC50 (Histone deacetylase 1) [nM]	IC50 (Histone deacetylase 3) [nM]	inhibition [1] [%]	IC50 [2] [nM]	IC50 (Histone deacetylase 8) [nM]	IC50 (Histone deacetylase 2) [nM]	IC50 [3] [nM]	IC50 [4] [nM]	IC50 [5] [nM]	inhibition [6] [%]	IC50 [7] [nM]	IC50 at 72 h [8] [nM]	IC50 [9] [nM]	IC50 [10] [nM]	Activity (LNCaP [11]) [%]	Activity (LNCaP [12]) [%]	Activity (LNCaP [13]) [%]	IC50 [14] [nM]	Activity (LNCaP [15]) [%]	Activity (LNCaP [16]) [%]
COC(=O)Cc1c(C)n(Cc2ccc(-c3cn(CCCCCCCC(=O)NO)nn3)cc2)c2ccc(OC)cc12	251	181	7.08	12000	394	209	1530	5	4580	78.2	1280	5730								
Cc1ccc(-c2cc(C(=O)NCCCCCCCC(=O)NO)nn2-c2ccc(S(N)(=O)=O)cc2)cc1	60	33			697	32	> 20000	183		66.9	7120	12100	59500	34100						
Cc1ccc(-c2cc(C(=O)NCCCCCC(=O)NO)nn2-c2ccc(S(N)(=O)=O)cc2)cc1	400	191			544	232		92		19.1		> 100000	> 100000	> 100000						
Cc1ccc(-c2cc(C(=O)NCCCCCCC(=O)NO)nn2-c2ccc(S(N)(=O)=O)cc2)cc1	208	333	26.4		520	294	> 20000	83		71.1	25000	> 100000	> 100000	> 100000						
O=C(CCCCCCC(=O)Nc1ccccc1)NO [VORINOSTAT]												1030			0.31	0.69	85.6	2120	18.4	-4.88
COC(=O)Cc1c(C)n(Cc2ccc(-c3cn(CCCCCC(=O)NO)nn3)cc2)c2ccc(OC)cc12	778	224			672	1360	> 20000	6830		11.5	9310	37800	14200							
Cc1ccc(-c2cc(C(F)(F)F)nn2-c2ccc(S(=O)(=O)NCCCCCC(=O)NO)cc2)cc1	1870	1020	16.2		226	2060	8880	76		97.7	8740	6830	7770	10400						
